The results in this text go back to ChEMBL document CHEMBL1141094, “Bisphosphonate inhibition of the exopolyphosphatase activity of the Trypanosoma brucei soluble vacuolar pyrophosphatase” (J Med Chem, 2005).

Assay [1] concerns the target T1, Vacuolar-type proton translocating pyrophosphatase 1 (Trypanosoma brucei) (UniProt Q8MTZ4).
T1 sequence (whole entry): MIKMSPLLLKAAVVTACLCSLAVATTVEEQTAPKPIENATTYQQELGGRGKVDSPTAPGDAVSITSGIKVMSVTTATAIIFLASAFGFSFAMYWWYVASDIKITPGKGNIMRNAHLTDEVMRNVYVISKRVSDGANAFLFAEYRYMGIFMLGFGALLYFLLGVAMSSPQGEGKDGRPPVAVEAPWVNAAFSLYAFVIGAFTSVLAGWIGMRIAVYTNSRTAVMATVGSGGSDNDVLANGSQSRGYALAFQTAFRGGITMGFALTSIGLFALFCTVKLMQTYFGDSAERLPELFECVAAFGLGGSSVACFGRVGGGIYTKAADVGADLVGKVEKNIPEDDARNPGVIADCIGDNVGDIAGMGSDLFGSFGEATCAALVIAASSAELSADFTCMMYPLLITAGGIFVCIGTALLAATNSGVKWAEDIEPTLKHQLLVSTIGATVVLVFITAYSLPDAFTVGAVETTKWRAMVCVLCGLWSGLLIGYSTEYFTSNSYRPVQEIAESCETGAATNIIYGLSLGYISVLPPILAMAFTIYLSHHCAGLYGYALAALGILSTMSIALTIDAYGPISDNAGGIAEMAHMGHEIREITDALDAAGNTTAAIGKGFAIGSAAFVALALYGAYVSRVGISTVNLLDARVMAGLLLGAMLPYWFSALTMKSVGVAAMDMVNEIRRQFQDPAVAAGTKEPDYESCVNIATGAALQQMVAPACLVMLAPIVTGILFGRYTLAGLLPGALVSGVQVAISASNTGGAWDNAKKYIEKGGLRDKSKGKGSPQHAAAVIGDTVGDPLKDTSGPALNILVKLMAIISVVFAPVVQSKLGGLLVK
Description: Ratio of ED50 against KB cell line to that of IC50 of TbVSP1. The class given is functional, cell-based.

A further assay has as its system KB. Description: Dose to inhibit the growth of human KB carcinoma cell line. Type of assay: functional. The settings on record: read-out: ED50 (the source's name).

For `O=P(O)(O)C(NC1CCCCCC1)P(=O)(O)O` [INCADRONIC ACID], the TI in assay [1] worked out at 3.7. The EC50 in the assay on KB is 166 µM.

Take `O=P(O)(O)C(O)(Cc1cccc2ccccc12)P(=O)(O)O`: the TI in assay [1] was 75. Moreover, the EC50 with KB was 847 µM.

In the case of `O=P(O)(O)C(O)(Cc1cccc(C(F)(F)F)c1)P(=O)(O)O`, the TI in assay [1] came to 6.3. In addition, the EC50 in the assay with KB stood at 109 µM.

With `CN(CCOc1ccccc1)CCC(O)(P(=O)(O)O)P(=O)(O)O`, the TI in assay [1] was 1. Also, the EC50 in the assay on KB worked out at 312 µM.

For `O=P(O)(O)C(O)(Cc1cccnc1)P(=O)(O)O` [RISEDRONIC ACID], the TI in assay [1] turned out to be 0.4. Moreover, the EC50 in the assay on KB stood at 255 µM.

For `CCCCCCCCCC(O)(P(=O)(O)O)P(=O)(O)O`, in assay [1], the TI is 2.5. The EC50 in the assay on KB is 892 µM.

Regarding `CCCCNC(P(=O)(O)O)P(=O)(O)O` [(BUTYLAMINO)METHYLENEDIPHOSPHONIC ACID], the TI in assay [1] was found to be 4.9. Moreover, the EC50 with KB came to 212 µM.

As for `CCc1cccc(NC(P(=O)(O)O)P(=O)(O)O)c1`, in assay [1], the TI was 423. Also, in the assay with KB, the EC50 was 1020 µM.

As for `O=P(O)(O)C(Nc1ccc(Cl)cc1Cl)P(=O)(O)O` [2,4-DICHLOROPHENYLAMINOMETHYLENEBISPHOSPHONIC ACID], in assay [1], the TI worked out at 169. In addition, the EC50 in the assay with KB was 728 µM.

Consider `O=P(O)(O)C(O)(Cn1ccnc1)P(=O)(O)O` [ZOLEDRONIC ACID], for which, in assay [1], the TI amounted to 0.3. The EC50 in the assay on KB was found to be 63.7 µM.

Take `CC(C)c1cccc(NC(P(=O)(O)O)P(=O)(O)O)c1`: the TI in assay [1] came to 79. The EC50 in the assay on KB is 771 µM.

Turning to `O=P(O)(O)C(O)(Cc1cccc(Br)c1)P(=O)(O)O`, the TI in assay [1] amounted to 25. For the same molecule, in the assay on KB, the EC50 was found to be 228 µM.

Regarding `Cc1cccc(CC(O)(P(=O)(O)O)P(=O)(O)O)c1`, the TI in assay [1] came out at 0.04. The EC50 in the assay on KB was 0.9 µM.

With `CCCCCCCCC(O)(P(=O)(O)O)P(=O)(O)O`, the TI in assay [1] was 1.3. The EC50 in the assay with KB is 64 µM.

Turning to `Nc1ccc(CC(O)(P(=O)(O)O)P(=O)(O)O)cc1`, in assay [1], the TI is 4. In addition, the EC50 with KB came to 218 µM.

For `CCc1ccc(NC(P(=O)(O)O)P(=O)(O)O)cc1`, the TI in assay [1] stood at 21. Further, the EC50 in the assay with KB was 257 µM.

On to `O=P(O)(O)C(O)(Cc1cccc(Cl)c1)P(=O)(O)O`, for which the TI in assay [1] turned out to be 38. Moreover, the EC50 in the assay with KB is 283 µM.

Take `O=P(O)(O)C(Nc1ccc2c(c1)CCC2)P(=O)(O)O`: the TI in assay [1] was found to be 101. The EC50 with KB came out at 976 µM.

As for `CCn1c2ccccc2c2ccc(NC(P(=O)(O)O)P(=O)(O)O)cc21`, the TI in assay [1] came to 19. Besides, the EC50 in the assay on KB stood at 710 µM.

As to `CCCCC(O)(P(=O)(O)O)P(=O)(O)O`, in assay [1], the TI was 82. Besides, the EC50 with KB was 1040 µM.

Take `O=P(O)(O)C(CNc1ccccn1)P(=O)(O)O`: the TI in assay [1] worked out at 0.4. Further, the EC50 in the assay on KB stood at 144 µM.

As to `CCCNC(P(=O)(O)O)P(=O)(O)O` [(PROPYLAMINO)METHYLENEDIPHOSPHONIC ACID], the TI in assay [1] came to 10. The EC50 in the assay with KB was determined as 499 µM.

As for `CC(C)(C)c1cc(NC(P(=O)(O)O)P(=O)(O)O)cc(C(C)(C)C)c1`, in assay [1], the TI turned out to be 39. In the assay on KB, the EC50 was 634 µM.

As for `CCc1cccc(NC(P(=O)(O)O)P(=O)(O)O)n1`, the TI in assay [1] came to 15. The EC50 with KB was 847 µM.

Consider `CCCCCCCCCNC(P(=O)(O)O)P(=O)(O)O` [(NONYLAMINO)METHYLENEDIPHOSPHONIC ACID], for which, in assay [1], the TI is 16. The EC50 in the assay on KB was 919 µM.

For the molecule `CC(C)c1cccc(C(C)C)c1NC(P(=O)(O)O)P(=O)(O)O`, the TI in assay [1] stood at 28. In the assay on KB, the EC50 stood at 713 µM.

As to `CCCCCC(O)(P(=O)(O)O)P(=O)(O)O`, the TI in assay [1] came out at 10. Besides, the EC50 with KB is 107 µM.

As for `O=[N+]([O-])c1cccc(CC(O)(P(=O)(O)O)P(=O)(O)O)c1`, in assay [1], the TI was 44. Besides, the EC50 with KB came out at 727 µM.

In the case of `CCCCOc1ccc(NC(P(=O)(O)O)P(=O)(O)O)cc1`, in assay [1], the TI was 5.3. Also, the EC50 in the assay on KB was determined as 210 µM.

Regarding `O=P(O)(O)C(Nc1cccc(-c2ccccc2)c1)P(=O)(O)O`, the TI in assay [1] is 174. Further, the EC50 in the assay with KB is 749 µM.

In the case of `O=P(O)(O)C(O)(Cc1cccc(F)c1)P(=O)(O)O`, the TI in assay [1] came to 20. Besides, in the assay on KB, the EC50 came out at 225 µM.

On to `O=P(O)(O)C(Nc1cccc(Cc2ccccc2)c1)P(=O)(O)O`, for which, in assay [1], the TI came to 14. Also, the EC50 with KB amounted to 645 µM.

For `CCCCCCCCCCCCCCCC(O)(P(=O)(O)O)P(=O)(O)O`, the TI in assay [1] is 2.1. Moreover, the EC50 in the assay with KB was determined as 729 µM.

As for `O=P(O)(O)C(Nc1ccc(-c2ccccc2)cc1)P(=O)(O)O`, in assay [1], the TI came to 1.4. The EC50 with KB was determined as 495 µM.
